Results reported in paper PMC5164911, “Comparative Analysis of the Interaction between Different Flavonoids and PDIA3” (Oxidative Medicine and Cellular Longevity, 2016).

Experiments:
PDIA3 = target: T1, PDIA3 (Homo sapiens, UniProt P30101); assay: Disulfide reductase activity with DiE-GSSG fluorogenic probe; format: biochemical; conditions: DiE-GSSG substrate; for Inhibition of disulfide reductase (redox) activity: 20 μM flavonoid (Figure 7)
T1 construct: made in house; host or cells: E. coli BL21 (vector pET21)
T1 sequence (P30101 25-505): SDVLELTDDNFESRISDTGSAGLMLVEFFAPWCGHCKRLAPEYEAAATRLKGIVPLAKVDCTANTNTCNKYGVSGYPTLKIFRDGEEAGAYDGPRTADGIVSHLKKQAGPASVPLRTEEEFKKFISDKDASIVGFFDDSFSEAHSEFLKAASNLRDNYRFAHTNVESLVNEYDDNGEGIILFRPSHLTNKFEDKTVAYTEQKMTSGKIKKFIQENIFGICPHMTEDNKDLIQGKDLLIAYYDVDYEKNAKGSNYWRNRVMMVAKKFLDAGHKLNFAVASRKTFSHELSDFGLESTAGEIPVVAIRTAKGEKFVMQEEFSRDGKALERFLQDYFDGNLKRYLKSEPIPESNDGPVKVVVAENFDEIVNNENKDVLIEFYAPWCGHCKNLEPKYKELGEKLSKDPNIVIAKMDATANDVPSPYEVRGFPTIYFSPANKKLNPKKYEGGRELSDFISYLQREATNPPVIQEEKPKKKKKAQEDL
Procedure: Disulfide reductase activity of ERp57 was monitored by sensitive fluorescent assay using dieosin glutathione disulfide (DiE-GSSG) as fluorogenic probe. DiE-GSSG was synthesized by the reaction of eosin isothiocyanate with oxidized glutathione (GSSG) according to the method of Raturi and Mutus with some modifications. DiE-GSSG concentration was determined spectrophotometrically (ℇ 525 = 88,000 M^-1 cm^−1). Disulfide reductase activity was assayed in a reaction buffer containing 2 mM EDTA, 150 nM DiE-GSSG, and 5 μM DTT in PBS. A 20 μl aliquot of a stock solution of PDIA3 (1 μM) was added to the reaction mixture and DiE-GSSG reduction was monitored at 545 nm with excitation at 520 nm, at 25°C with continuous stirring. Reductase activity was calculated as the initial velocity in fluorescence increase. To test the effect of flavonoids on PDIA3 activity, the protein stock solution was previously incubated for 15 minutes at room temperature with different concentrations of each flavonoid and then a 20 μl aliquot subjected to assay in a reaction buffer containing the same concentration of the flavonoid.
Fluorescence quenching constant (K SV) values were given as means ± standard deviation and values of disulfide reductase activity were expressed in % of control sample ± relative standard deviation. All measurements were performed at least three times. Dunnett's test was used to compare the obtained reductase activity data with the activity of the untreated protein and a p value of <0.01 was considered as statistically significant.

[1] = target: T2, PDIA3 a′ domain (residues 377–505) (Homo sapiens, UniProt P30101); assay: Fluorescence quenching titration of isolated a′ domain; format: binding; conditions: a′ domain 1 μM, reduced form; data not shown
T2 construct: second redox-active domain (a′ domain, residues 377–505); made in house; host or cells: E. coli BL21 (vector pET29)
T2 sequence (P30101 377-505): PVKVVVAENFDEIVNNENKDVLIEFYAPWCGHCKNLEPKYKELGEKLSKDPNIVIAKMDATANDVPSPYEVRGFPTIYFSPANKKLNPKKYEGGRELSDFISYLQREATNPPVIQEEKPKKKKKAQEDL
Excerpt: Human recombinant PDIA3 was cloned and expressed in E. coli strain BL21 using the expression vector pET21 (Novagen) as previously described. The coding sequence for the second redox-active domain (a′ domain, residues 377–505) was amplified by PCR as previously described and cloned in the expression vector pET29 (Novagen). Recombinant proteins were expressed in E. coli strain BL21 and purified by ammonium sulphate fractionation, ion exchange, and heparin chromatography. Protein purification was evaluated by SDS-PAGE and concentration was determined spectrophotometrically (PDIA3 ℇ 280 reduced form = 44,810 M^−1 cm^−1; a′ domain ℇ 280 reduced form = 14,400 M^−1 cm^−1).
Quantitative analysis of the interaction between individual flavonoids and PDIA3 was performed by fluorimetric titration. Fluorescence spectra were recorded using a SPEX-FluoroMax spectrofluorimeter (Horiba Scientific) from 300 to 500 nm with excitation at 290 nm using a 10 mm path length quartz fluorescence cuvette and under continuous stirring. The excitation and emission slits were both set to 5 nm and scan speed was 120 nm·min^−1. […] Fluorescence spectra of appropriate blanks (flavonoids without proteins) were recorded under the same experimental conditions and subtracted from the corresponding flavonoid-protein system to correct the fluorescence background. Fluorescence intensities recorded at 338 nm were used for quenching analysis and data obtained for each flavonoid are the average of at least three independent titration experiments.
Quenching analysis was performed on PDIA3 (0.5 μM), in the reduced form, by adding stepwise increasing concentration of each molecule and recording the protein fluorescence spectra. […] Quenching effect on protein and Stern-Volmer quenching constant (K SV) were calculated from the fluorescence intensities at 338 nm of protein alone (F 0) and in the presence of increasing concentration of each ligand molecule (F) using the Stern-Volmer equation [40]: (1) F0/F=1+KSVL, where L is the ligand concentration. […]

Compound	Effect on disulfide reductase activity (in words) (PDIA3)	Affinity for isolated a′ domain [1]	Inhibition of disulfide reductase (redox) activity (PDIA3)	Inhibition of disulfide reductase (redox) activity (PDIA3; listed as eupatorin)
O=c1cc(-c2ccc(O)cc2)oc2cc(O)cc(O)c12 [Apigenin, apigenin]	no evident effect	greatest affinity	–	–
COc1ccc(-c2cc(=O)c3c(O)c(OC)c(OC)cc3o2)cc1O [Eupatorin, eupatorin]	noticeable inhibitory effect	greatest affinity	40%	up to 40%
COc1ccc(-c2cc(=O)c3c(OC)c(OC)c(OC)cc3o2)cc1O [Eupatorin-5-methyl ether, eupatorin-5-methyl-ether]	noticeable inhibitory effect	greatest affinity	up to 40%	–
